Experimental data as given in publication PMC3460867, “MmPPOX Inhibits Mycobacterium tuberculosis Lipolytic Enzymes Belonging to the Hormone-Sensitive Lipase Family and Alters Mycobacterial Growth” (PLoS ONE, 2012).
In brackets after ≈: the same amount, converted by molar mass. Like-named read-outs stand apart in the source and are kept apart here.

How the values were obtained:
[1] = test system: Lip-HSL enzymes; assay: Inhibition of all Lip-HSL enzymes tested, pre-incubation method, residual activity on pNPC4 (statements for the family); assay type: biochemical
[2] = test system: LipN; assay: Inhibition of recombinant LipN, pre-incubation method, residual activity on pNPC4; assay type: biochemical, M. tuberculosis; conditions: for Residual activity (%) 10 min / Residual activity (%) 30 min: pNPC4
[3] = target: LipC (Mycobacterium tuberculosis, UniProt P96402); assay: biochemical; assay type: biochemical; conditions: for x I50: inhibitor molar excess leading to 50% residual activity after 10 min incubation; for Residual activity (%) 10 min: 10 min incubation; for Residual activity (%) 30 min: 30 min incubation
[4] = test system: LipH; assay type: biochemical; conditions: pNPC4
[5] = target: T1, LipY (Mycobacterium tuberculosis, UniProt I6Y2J4); assay: biochemical; assay type: biochemical, M. tuberculosis; conditions: for Ki: Apparent K i
T1 sequence (I6Y2J4 1-437): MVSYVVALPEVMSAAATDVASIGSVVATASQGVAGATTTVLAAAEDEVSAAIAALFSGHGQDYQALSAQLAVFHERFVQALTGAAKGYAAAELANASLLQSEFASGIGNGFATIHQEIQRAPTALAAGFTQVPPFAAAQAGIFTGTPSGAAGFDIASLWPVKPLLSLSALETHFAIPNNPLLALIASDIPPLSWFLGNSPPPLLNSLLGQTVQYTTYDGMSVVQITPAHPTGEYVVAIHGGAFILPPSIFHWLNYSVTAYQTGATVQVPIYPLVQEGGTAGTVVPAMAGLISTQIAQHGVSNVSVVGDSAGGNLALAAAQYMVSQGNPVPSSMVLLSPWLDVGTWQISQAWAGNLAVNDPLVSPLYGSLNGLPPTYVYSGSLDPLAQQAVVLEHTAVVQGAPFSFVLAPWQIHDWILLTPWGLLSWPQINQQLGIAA

[6] = target: LipU (Mycobacterium tuberculosis, UniProt O53424); assay: biochemical; assay type: biochemical; conditions: for x I50: inhibitor molar excess leading to 50% residual activity after 10 min incubation
[7] = test system: M. bovis BCG strain Pasteur 1173P2; assay: microbe, parasite or virus in culture; assay type: cell-based; conditions: Mycobacterium tuberculosis variant bovis BCG
[8] = test system: LipF; assay type: biochemical; conditions: for Residual activity (%) 10 min / Residual activity (%) 30 min: pNPC4
[9] = test system: M. tuberculosis strain mc^27000; assay: microbe, parasite or virus in culture; assay type: cell-based; conditions: Mycobacterium tuberculosis
[10] = test system: LipR; assay type: biochemical; conditions: pNPC4
[11] = target: LipI (Mycobacterium tuberculosis, UniProt P71668); assay: biochemical; assay type: biochemical; conditions: for x I50: inhibitor molar excess leading to 50% residual activity after 10 min incubation; for Residual activity (%) 10 min: 10 min incubation; for Residual activity (%) 30 min: 30 min incubation
[12] = test system: LipW; assay type: biochemical; conditions: pNPC4
[13] = target: Cut6 (Mycobacterium tuberculosis, UniProt O53581); assay: biochemical; assay type: biochemical; conditions: for x I50: inhibitor molar excess leading to 50% residual activity after 10 min incubation
[14] = near stoichiometric proportions of inhibitor (x I<2)
[15] = LipC, near stoichiometric proportions of inhibitor (x I<2)
[16] = LipI, near stoichiometric proportions of inhibitor (x I<2)

Chain of LipC (P96402 whole entry): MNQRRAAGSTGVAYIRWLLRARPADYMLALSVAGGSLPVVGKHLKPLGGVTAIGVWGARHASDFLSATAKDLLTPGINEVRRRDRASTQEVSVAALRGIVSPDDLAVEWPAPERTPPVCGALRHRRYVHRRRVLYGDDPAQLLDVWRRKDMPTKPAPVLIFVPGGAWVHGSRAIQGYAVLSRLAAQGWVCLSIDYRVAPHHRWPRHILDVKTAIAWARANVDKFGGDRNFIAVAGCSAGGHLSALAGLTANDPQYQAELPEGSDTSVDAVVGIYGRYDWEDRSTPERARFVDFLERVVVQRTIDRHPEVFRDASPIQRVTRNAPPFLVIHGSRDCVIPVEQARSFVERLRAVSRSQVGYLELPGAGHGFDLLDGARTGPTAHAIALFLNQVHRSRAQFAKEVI
Chain of LipI (P71668 whole entry): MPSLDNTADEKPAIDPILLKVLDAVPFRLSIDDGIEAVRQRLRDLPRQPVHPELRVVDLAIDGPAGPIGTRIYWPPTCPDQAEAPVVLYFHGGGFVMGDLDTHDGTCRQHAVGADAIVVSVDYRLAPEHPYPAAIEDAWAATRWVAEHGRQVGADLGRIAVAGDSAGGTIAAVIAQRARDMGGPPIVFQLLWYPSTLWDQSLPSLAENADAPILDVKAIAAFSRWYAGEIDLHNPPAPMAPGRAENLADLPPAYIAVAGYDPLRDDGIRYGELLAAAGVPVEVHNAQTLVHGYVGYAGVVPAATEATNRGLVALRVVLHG
Chain of LipU (O53424 whole entry): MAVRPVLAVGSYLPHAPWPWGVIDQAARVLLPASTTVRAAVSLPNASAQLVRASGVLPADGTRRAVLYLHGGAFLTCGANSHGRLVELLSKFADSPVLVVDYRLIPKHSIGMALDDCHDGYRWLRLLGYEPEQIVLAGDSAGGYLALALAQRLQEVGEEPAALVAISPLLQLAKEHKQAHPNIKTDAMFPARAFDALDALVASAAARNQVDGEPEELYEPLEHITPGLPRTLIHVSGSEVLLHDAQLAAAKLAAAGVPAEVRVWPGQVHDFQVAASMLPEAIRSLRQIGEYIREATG
Chain of Cut6 (O53581 44-336): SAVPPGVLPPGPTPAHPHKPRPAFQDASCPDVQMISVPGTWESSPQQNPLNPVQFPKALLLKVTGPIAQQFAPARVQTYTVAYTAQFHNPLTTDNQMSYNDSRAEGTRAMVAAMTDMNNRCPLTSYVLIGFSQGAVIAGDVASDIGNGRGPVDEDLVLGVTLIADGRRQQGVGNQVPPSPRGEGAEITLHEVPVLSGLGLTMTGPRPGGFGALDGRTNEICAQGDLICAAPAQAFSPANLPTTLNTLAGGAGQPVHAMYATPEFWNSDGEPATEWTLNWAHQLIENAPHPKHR

COc1nn(-c2cccc(Oc3ccccc3)c2)c(=O)o1 [MmPPOX, 5-methoxy-N-3-(meta-phenoxyphenyl)-1,3,4-oxadiazol-2(3H)-one]
Activity restoration: increase of residual activity after 30 min as compared to 10 min ([1]; LipF, LipR, LipU and LipW): 4–8% | Half inactivation time (t1/2) ([1]; all Lip-HSL enzymes tested, x I = 20): < 1 min | Remaining activities ([1]; all Lip-HSL enzymes tested, x I = 20, 10 min incubation, pNPC4): less than 15% | Half inactivation time (t1/2) [2, 14]: < 1 min | Remaining activities [2, 14]: < 10% | Residual activity (%) 10 min ([2]; x I = 2, 10 min incubation): 6% | Residual activity (%) 30 min ([2]; x I = 2, 30 min incubation): 6% | Residual activity (%) 10 min ([2]; x I = 5, 10 min incubation): 0% | Residual activity (%) 30 min ([2]; x I = 5, 30 min incubation): 0% | Ki [3]: 1 µM | x I50 ratio ([3]; LipC, calculated as x I50 (THL)/x I50 (MmPPOX)): >10^3 | x I50 ([3]; LipC, pNPC4): 0.5 | Half inactivation time (t1/2) [3, 15]: < 1 min | Remaining activities [3, 15]: < 10% | Residual activity (%) 10 min ([3]; LipC, x I = 2, pNPC4): 7% | Residual activity (%) 30 min ([3]; LipC, x I = 2, pNPC4): 5% | Residual activity (%) 10 min ([3]; LipC, x I = 5, pNPC4): 0% | Residual activity (%) 30 min ([3]; LipC, x I = 5, pNPC4): 0% | Residual activity (%) 10 min ([4]; x I = 5, 10 min incubation): 9% | Residual activity (%) 30 min ([4]; x I = 5, 30 min incubation): 9% | Residual activity (%) 10 min ([4]; x I = 10, 10 min incubation): 0% | Residual activity (%) 30 min ([4]; x I = 10, 30 min incubation): 0% | Residual activity (%) 10 min [5]: 5% | Residual activity (%) 30 min [5]: 5% | x I50 ratio [5]: 0.4 | Ki [5]: 7.7 µM | Ki ([6]; Apparent K i, pNPC4): 5.1 µM | x I50 ratio ([6]; calculated as x I50 (THL)/x I50 (MmPPOX)): >333 | x I50 ([6]; pNPC4): 1.5 | Residual activity (%) 10 min ([6]; x I = 20, 10 min incubation, pNPC4): 10% | Residual activity (%) 30 min ([6]; x I = 20, 30 min incubation, pNPC4): 17% | MIC [7]: 10 to 20 µg/mL (≈ 35.2 to 70.4 µM) | Half inactivation time (t1/2) [8, 14]: < 1 min | Remaining activities [8, 14]: < 10% | Residual activity (%) 10 min ([8]; x I = 1, 10 min incubation): 7% | Residual activity (%) 30 min ([8]; x I = 1, 30 min incubation): 11% | Residual activity (%) 10 min ([8]; x I = 2, 10 min incubation): 0% | Residual activity (%) 30 min ([8]; x I = 2, 30 min incubation): 0% | MIC [9]: ~25 µg/mL (≈ 87.9 µM) | Residual activity (%) 10 min ([10]; x I = 20, 10 min incubation): 7% | Residual activity (%) 30 min ([10]; x I = 20, 30 min incubation): 15% | Ki [11]: 0.1 µM | x I50 ratio ([11]; LipI, calculated as x I50 (THL)/x I50 (MmPPOX)): 131.8 | x I50 ([11]; LipI, pNPC4): 0.5 | Half inactivation time (t1/2) [11, 16]: < 1 min | Remaining activities [11, 16]: < 10% | Residual activity (%) 10 min ([11]; LipI, x I = 1, pNPC4): 7% | Residual activity (%) 30 min ([11]; LipI, x I = 1, pNPC4): 6% | Residual activity (%) 10 min ([11]; LipI, x I = 2, pNPC4): 0% | Residual activity (%) 30 min ([11]; LipI, x I = 2, pNPC4): 0% | Residual activity (%) 10 min ([12]; x I = 20, 10 min incubation): 6% | Residual activity (%) 30 min ([12]; x I = 20, 30 min incubation): 13% | Ki ([13]; Apparent K i, Cut6, pNPC4): > 1000 µM | Ki ([13]; Apparent K i, Cut6, pNPC4, value of the text): 6400 µM | x I50 ratio ([13]; Cut6, calculated as x I50 (THL)/x I50 (MmPPOX)): <0.1 | x I50 ([13]; Cut6, pNPC4): 227.9 | Activity in the presence of inhibitor ([13]; Cut6, x I = 20): retained full activity | Residual activity (%) 10 min ([13]; Cut6, x I = 20, 10 min incubation, pNPC4): 100% | Residual activity (%) 30 min ([13]; Cut6, x I = 20, 30 min incubation, pNPC4): 100% | Apparent K i for Cut6 relative to those of Lip-HSL proteins (times higher) ([13]; Cut6 vs Lip-HSL proteins): about 1000

CCCCCCCCCCC[C@@H](C[C@@H]1OC(=O)[C@H]1CCCCCC)OC(=O)[C@H](CC(C)C)NC=O [THL, Tetrahydrolipstatin]
x I50 ([3]; LipC, pNPC4): >500 | Ki ([3]; LipC, pNPC4, read-out: Apparent K i): > 1000 µM | Ki [5]: 3.2 µM | x I50 ([6]; pNPC4): >500 | Ki ([6]; pNPC4, read-out: Apparent K i): > 1000 µM | MIC [7]: 7.5 µg/mL (≈ 15.1 µM) | MIC [9]: 20 µg/mL (≈ 40.3 µM) | x I50 ([11]; LipI, pNPC4): 65.9 | Ki ([11]; LipI, pNPC4, read-out: Apparent K i): 13.1 µM | x I50 ([13]; Cut6, pNPC4): 9.7 | Ki ([13]; Cut6, pNPC4, read-out: Apparent K i): 142 µM
